Measurements from patent EP0676201B1, “Use of a riminophenazine for treating MDR resistance” (priority 1994, dated 1995).
≈ marks a conversion by molar mass, not a printed value. Where two headings read alike, the source gives them in different places.

Legend:
K562/MMB = assay: MTT assay, 7-day exposure to riminophenazines alone or with fixed doxorubicin or vinblastine (Example 4); assay type: cell-based; conditions: Homo sapiens, K562, 168 h
Text: A third cell line (562/MMB) used was a MDR leukemia cell line selected in vitro by progressive exposure to increasing concentrations of vinblastine in order to increase P-glycoprotein expression. […] This cell line expresses high levels of P-glycoprotein as determined by flowcytometry using the monoclonal antibody (MRK 16) against this molecule.
The effects were examined of a 7-day exposure of selected compounds on the sensitivity of the cell line (K562/MMB) to the standard chemotherapeutic agents doxorubicin and vinblastine, using the MTT assay.
The cells were seeded at 1 x 10^4 cells per well in 96 well microlitre plates in a volume of 200 µl of RPMI 1640 medium containing 10 % fetal calf serum and incubated with doxorubicin (12.5 ng/ml) or vinblastine (3 ng/ml). The amounts of MDR modulators used were 0.03, 0.06, 0.125, 0.5, 1.0 and 2.0 µg/ml.
After incubation at 37 °C for 7 days, 20 µl MTT (i.e. 3-[4,5-dimethylthiazol-2-yl]2,5-diphenyl-tetrazolium bromide) at 5 mg/ml was added to each well and the plates incubated for a further 4 hours. The cells were washed with phosphate buffered saline and the intracellular formazan crystals solubilized with dimethylsulphoxide, and the absorbency measured spectrophotometrically at a test wavelength of 540 nm and a reference wavelength of 620 nm.

H69/P = assay: MTT assay, 7-day exposure: sensitivity of parent cells to chemotherapeutic agents with or without MDR inhibitor (Example 1); assay type: cell-based, human; conditions: for fold sensitivity compared with the chemotherapeutic agent without the MDR inhibitor, B669 / fold sensitivity compared with the chemotherapeutic agent without the MDR inhibitor, Clofazimine (B663) / fold sensitivity compared with the chemotherapeutic agent without the MDR inhibitor, CsA: value in parenthesis; for fold sensitivity compared with the chemotherapeutic agent without the MDR inhibitor, CsA: with CsA 5 µg/ml; for IC50: Homo sapiens, 168 h
Text: (§1) A further test using no MDR inhibitor was used as a standard.

H69/LX4 = assay: MTT assay, 7-day exposure: sensitivity of resistant (MDR) cells to chemotherapeutic agents with or without MDR inhibitor (Example 1); assay type: cell-based; conditions: Homo sapiens, 168 h
Text: as §1
The cell lines used were human small cell lung cancer cell line HP69/P and a multi-drug resistant (MDR) sub-line H69/LX4, both of which were supplied by the MRC Clinical Oncology and Radiotherapeutics Unit, Hills Road, Cambridge, England. The maintenance of the cell lines and drug response assays was done as described by Twentyman et al in British Journal of Cancer Volume 65 pages 335-340. The H69/LX4 line was originally described by Twentyman et al in British Journal of Cancer Volume 53, pages 529-637 (1986).
The data in parenthesis represents fold sensitivity compared with the chemotherapeutic agent without the MDR inhibitor.

[1] = in the presence of doxorubicin (12 ng/ml), read-out: IC 50 of riminophenazine, Doxorubicin
[2] = in the presence of vinblastine (3 ng/ml), read-out: IC 50 of riminophenazine, Vinblastine
[3] = riminophenazine alone, mean of 2 experiments, read-out: IC 50 of riminophenazine, None
[4] = H69/P, with Clofazimine 1 µg/ml
[5] = read-out: IC50 of chemotherapeutic agent, MDR INHIBITOR B669
[6] = read-out: IC50 of chemotherapeutic agent, MDR INHIBITOR Clofazimine (B663)
[7] = read-out: IC50 of chemotherapeutic agent, MDR INHIBITOR CsA
[8] = read-out: IC50 of chemotherapeutic agent, MDR INHIBITOR None
[9] = H69/P, no MDR inhibitor, 7 day exposure, mean of 2 - 4 experiments, read-out: IC50 of chemotherapeutic agent, MDR INHIBITOR None
[10] = H69/P, with B669 0.5 µg/ml, 7 day exposure, read-out: IC50 of chemotherapeutic agent, MDR INHIBITOR B669
[11] = H69/P, with Clofazimine 1 µg/ml, 7 day exposure, read-out: IC50 of chemotherapeutic agent, MDR INHIBITOR Clofazimine (B663)
[12] = H69/LX4, no MDR inhibitor, 7 day exposure, mean of 2 - 4 experiments, read-out: IC50 of chemotherapeutic agent, MDR INHIBITOR None
[13] = H69/LX4, with B669 0.5 µg/ml, 7 day exposure, read-out: IC50 of chemotherapeutic agent, MDR INHIBITOR B669
[14] = H69/LX4, with Clofazimine 1 µg/ml, 7 day exposure, read-out: IC50 of chemotherapeutic agent, MDR INHIBITOR Clofazimine (B663)

SMILES | IC50 (K562/MMB; [1]) [ng/mL] | IC50 (K562/MMB; [2]) [ng/mL] | IC50 (K562/MMB; [3]) [ng/mL] | also measured
CC1(C)CC(N=c2cc3n(-c4ccccc4)c4ccccc4nc-3cc2Nc2ccccc2)CC(C)(C)N1 [Compound B3962, N,5-bis(phenyl)-3,5-dihydro-3-[(2',2',6',6'-tetramethyl-4-piperidyl)imino]-2-phenazinamine] | 159 | 70 | 285 (≈ 0.568 µM) | –
Cc1ccc(Nc2cc3nc4ccccc4n(-c4ccc(C)cc4)c-3cc2=NC2CCNCC2)cc1 [Compound B4070, N,5-bis(4-methylphenyl)-3,5-dihydro-3-[(4-piperidyl)imino]-2-phenazinamine] | 193 | 54 | 159 (≈ 0.336 µM) | –
CC1(C)CC(N=c2cc3n(-c4ccc(Cl)cc4)c4ccc(Cl)cc4nc-3cc2Nc2ccc(Cl)cc2)CC(C)(C)N1 [Compound B4090] | 139 | < 50 | 197 (≈ 0.326 µM) | –
CC1(C)CC(N=c2cc3n(-c4ccc(Cl)c(Cl)c4)c4ccccc4nc-3cc2Nc2ccc(Cl)c(Cl)c2)CC(C)(C)N1 [Compound B4100] | 278 | 95 | 335 (≈ 0.524 µM) | –
CC1(C)CC(N=c2cc3n(-c4ccc(C(F)(F)F)cc4)c4ccccc4nc-3cc2Nc2ccc(C(F)(F)F)cc2)CC(C)(C)N1 [Compound B4103, N,5-bis(4-trifluoromethylphenyl)-3,5-dihydro-3[(2',2',6',6'-tetramethyl-4-piperidyl)imino]-2-phenazinamine] | 269 | 51 | 351 (≈ 0.55 µM) | –
CC1(C)CC(N=c2cc3n(-c4cc(Cl)cc(Cl)c4)c4ccccc4nc-3cc2Nc2cc(Cl)cc(Cl)c2)CC(C)(C)N1 [Compound B4121] | 722 | – | 2250 (≈ 3.52 µM) | –
CC1(C)CC(N=c2cc3n(-c4cccc(Cl)c4)c4ccc(Cl)cc4nc-3cc2Nc2cccc(Cl)c2)CC(C)(C)N1 [Compound B4123, N,5-bis(3-chlorophenyl)-8-chloro-3,5-dihydro-3[(2,2',6',6'-tetramethyl-4-piperidyl)-imino]-2-phenazinamine] | 181 | < 50 | 333 (≈ 0.55 µM) | –
CC1(C)CC(N=c2cc3n(-c4cccc(C(F)(F)F)c4)c4ccccc4nc-3cc2Nc2cccc(C(F)(F)F)c2)CC(C)(C)N1 [Compound B4126, N,5-bis(3-trifluoromethyl-4-phenyl)-3,5-dihydro-3-[(2',2',6',6'-tetramethyl-4-piperidyl)-imino]-2-phenazinamine] | 246 | 71 | 316 (≈ 0.496 µM) | –
CC1(C)CC(N=c2cc3n(-c4cccc(C(F)(F)F)c4)c4ccc(Cl)cc4nc-3cc2Nc2cccc(C(F)(F)F)c2)CC(C)(C)N1 [Compound B4127, N,5-bis(3-trifluoromethylphenyl)-8-chloro-3,5-dihydro-3-[(2',2',6',6'-tetramethyl-4-piperidyl)-imino]-2-phenazinamine] | 168 | 70 | 425 (≈ 0.632 µM) | –
CC1(C)CC(N=c2cc3n(-c4ccc(Cl)cc4Cl)c4ccccc4nc-3cc2Nc2ccc(Cl)cc2Cl)CC(C)(C)N1 [Compound B4128] | 215 | 59 | 383 (≈ 0.599 µM) | –
CCN(CC)CCCN=c1cc2n(-c3ccc(Cl)c(Cl)c3)c3ccccc3nc-2cc1Nc1ccc(Cl)c(Cl)c1 [Compound B4154] | 296 | 118 | 353 (≈ 0.575 µM) | –
CC(C)c1ccc(Nc2cc3nc4ccccc4n(-c4ccc(C(C)C)cc4)c-3cc2=NC2CC(C)(C)NC(C)(C)C2)cc1 [Compound B4158, N,5-bis(4-isopropylphenyl)-3,5-dihydro-3-[(2',2',6',6'-tetramethyl-4-piperidyl)-imino]-2-phenazinamine] | 155 | 58 | 272 (≈ 0.464 µM) | –
CC(C)c1ccc(Nc2cc3nc4cc(Cl)ccc4n(-c4ccc(C(C)C)cc4)c-3cc2=NC2CC(C)(C)NC(C)(C)C2)cc1 [Compound B4159, N,5-bis(4-isopropylphenyl)-8-chloro-3,5-dihydro-3-[(2',2',6',6'-tetramethyl-4-piperidyl)-imino]-2-phenazinamine] | 514 | 130 | 912 (≈ 1.47 µM) | –
CC1(C)CC(N=c2cc3n(-c4ccc(Cl)c(C(F)(F)F)c4)c4ccccc4nc-3cc2Nc2ccc(Cl)c(C(F)(F)F)c2)CC(C)(C)N1 [Compound B4163, N,5-bis[(3-trifluoromethyl)-4-chlorophenyl]-3,5-dihydro-3-[(2',2',6',6'-tetramethylpiperidyl)-imino]-2-phenazinamie] | 227 | < 50 | 340 (≈ 0.481 µM) | –
COc1ccc(Nc2cc3nc4ccccc4n(-c4ccc(OC)cc4)c-3cc2=NC2CC(C)(C)NC(C)(C)C2)cc1 [Compound B4174, N,5-bis(4-methoxyphenyl)-3,5-dihydro-3-[(2',2',6',6'-tetramethyl-4-piperidyl)-imino]-2-phenazinamine] | 210 | 178 | 316 (≈ 0.563 µM) | –
O=P1(N(CCCl)CCCl)NCCCO1 (stereo not shown) [Cyclophosphamide] | – | – | – | fold sensitivity compared with the chemotherapeutic agent without the MDR inhibitor, B669 (H69/P; H69/P, with B669 0.5 µg/ml): 1.0 fold; fold sensitivity compared with the chemotherapeutic agent without the MDR inhibitor, Clofazimine (B663) (H69/P; [4]): 0.9 fold; fold sensitivity compared with the chemotherapeutic agent without the MDR inhibitor, CsA (H69/P; H69/P): 1.1 fold; IC50 (H69/P; [5]): 1800 ng/mL (≈ 6.89 µM); IC50 (H69/P; [6]): 1900 ng/mL (≈ 7.28 µM); IC50 (H69/P; [7]): 1600 ng/mL (≈ 6.13 µM); IC50 (H69/P; [8]): 1800 ng/mL (≈ 6.89 µM); IC50 (H69/LX4; [5]): 1400 ng/mL (≈ 5.36 µM); IC50 (H69/LX4; [6]): 1600 ng/mL (≈ 6.13 µM); IC50 (H69/LX4; [7]): 1700 ng/mL (≈ 6.51 µM); IC50 (H69/LX4; [8]): 1600 ng/mL (≈ 6.13 µM)
COc1cccc2c1C(=O)c1c(O)c3c(c(O)c1C2=O)C[C@@](O)(C(C)=O)C[C@@H]3O[C@H]1C[C@H](N)[C@H](O)[C@H](C)O1 [Daunorubicin] | – | – | – | fold sensitivity compared with the chemotherapeutic agent without the MDR inhibitor, B669 (H69/P; H69/P, with B669 0.5 µg/ml): 1.2 fold; fold sensitivity compared with the chemotherapeutic agent without the MDR inhibitor, Clofazimine (B663) (H69/P; [4]): 1.0 fold; fold sensitivity compared with the chemotherapeutic agent without the MDR inhibitor, CsA (H69/P; H69/P): 1.0 fold; IC50 (H69/P; [7]): 2 ng/mL (≈ 0.00379 µM); IC50 (H69/P; [9]): 2 ng/mL (≈ 0.00379 µM); IC50 (H69/P; [10]): 1.6 ng/mL (≈ 0.00303 µM); IC50 (H69/P; [11]): 2 ng/mL (≈ 0.00379 µM); IC50 (H69/LX4; [7]): 4 ng/mL (≈ 0.00758 µM); IC50 (H69/LX4; [12]): 36 ng/mL (≈ 0.0682 µM); IC50 (H69/LX4; [13]): 15 ng/mL (≈ 0.0284 µM); IC50 (H69/LX4; [14]): 9 ng/mL (≈ 0.0171 µM)
COc1cccc2c1C(=O)c1c(O)c3c(c(O)c1C2=O)C[C@@](O)(C(=O)CO)C[C@@H]3O[C@H]1C[C@H](N)[C@H](O)[C@H](C)O1 [Doxorubicin] | – | – | – | fold sensitivity compared with the chemotherapeutic agent without the MDR inhibitor, B669 (H69/P; H69/P, with B669 0.5 µg/ml): 1.0 fold; fold sensitivity compared with the chemotherapeutic agent without the MDR inhibitor, Clofazimine (B663) (H69/P; [4]): 0.8 fold; fold sensitivity compared with the chemotherapeutic agent without the MDR inhibitor, CsA (H69/P; H69/P): 1.0 fold; IC50 (H69/P; [7]): 3 ng/mL (≈ 0.00552 µM); IC50 (H69/P; [9]): 3 ng/mL (≈ 0.00552 µM); IC50 (H69/P; [10]): 3 ng/mL (≈ 0.00552 µM); IC50 (H69/P; [11]): 4 ng/mL (≈ 0.00736 µM); IC50 (H69/LX4; [7]): 10 ng/mL (≈ 0.0184 µM); IC50 (H69/LX4; [12]): 110 ng/mL (≈ 0.202 µM); IC50 (H69/LX4; [13]): 16 ng/mL (≈ 0.0294 µM); IC50 (H69/LX4; [14]): 10 ng/mL (≈ 0.0184 µM)
COc1cc([C@@H]2c3cc4c(cc3[C@@H](O[C@@H]3O[C@@H]5CO[C@@H](C)O[C@H]5[C@H](O)[C@H]3O)[C@H]3COC(=O)[C@H]23)OCO4)cc(OC)c1O [Etoposide] | – | – | – | fold sensitivity compared with the chemotherapeutic agent without the MDR inhibitor, B669 (H69/P; H69/P, with B669 0.5 µg/ml): 1.2 fold; fold sensitivity compared with the chemotherapeutic agent without the MDR inhibitor, Clofazimine (B663) (H69/P; [4]): 0.6 fold; fold sensitivity compared with the chemotherapeutic agent without the MDR inhibitor, CsA (H69/P; H69/P): 0.8 fold; IC50 (H69/P; [7]): 0.09 ng/mL (≈ 0.000153 µM); IC50 (H69/P; [9]): 0.7 ng/mL (≈ 0.00119 µM); IC50 (H69/P; [10]): 0.06 ng/mL (≈ 0.000102 µM); IC50 (H69/P; [11]): 0.11 ng/mL (≈ 0.000187 µM); IC50 (H69/LX4; [7]): 0.08 ng/mL (≈ 0.000136 µM); IC50 (H69/LX4; [12]): 13 ng/mL (≈ 0.0221 µM); IC50 (H69/LX4; [13]): 0.09 ng/mL (≈ 0.000153 µM); IC50 (H69/LX4; [14]): 2.6 ng/mL (≈ 0.00442 µM)
